Experimental data taken from patent US9023789B2, “Amylin analogs and pharmaceutical compositions thereof” (Novo Nordisk A/S, priority 2012, dated 2015).
Numbered stars: 1 amine (or outer) side, 2 acyl side, 3 side chain; on linkers, the order of the positions; unused ones are H or OH. Bridge positions count the residues as written; N and C are the ends. Side chains are listed from the residue outwards. Peptide text beside a SMILES is read from it. * marks the point of attachment. C20 diacid = O=C(O)CCCCCCCCCCCCCCCCCCC(=O)*; γGlu = O=C(O)[C@H](CCC(=O)[*:2])N[*:1]; AEEA = NCCOCCOCC(=O)O

Experiments:
[1] = ASSAY (III) ThT fibrillation assay for physical stability; type: physicochemical
Summary of the method: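 Formulations with 1 μM ThT, pH adjusted as required, incubated at 37 °C with 960 rpm orbital shaking; fluorescence (ex 444/em 485 nm) read every 20 min. Fibrillation reported as mean ThT fluorescence ± SD of 4–8 replicates at time points; polypeptide concentration measured by reverse-phase HPLC before and after, post-centrifugation.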

[2] = target: T1, rat amylin receptor (rat calcitonin receptor + rat RAMP 3) (Rattus norvegicus, UniProt P32214+Q9JJ73); assay: ASSAY (VI) binding to the rat amylin receptor; settings: for IC50: binding to rat amylin receptor, read-out: rAmylin-R bind IC50
T1 construct: expressed in transfected cells; host or cells: BHK tk'ts 13 (transient, FuGENE 6), membranes
T1 sequence (P32214 25-479 isoform P32214-2 limits assumed): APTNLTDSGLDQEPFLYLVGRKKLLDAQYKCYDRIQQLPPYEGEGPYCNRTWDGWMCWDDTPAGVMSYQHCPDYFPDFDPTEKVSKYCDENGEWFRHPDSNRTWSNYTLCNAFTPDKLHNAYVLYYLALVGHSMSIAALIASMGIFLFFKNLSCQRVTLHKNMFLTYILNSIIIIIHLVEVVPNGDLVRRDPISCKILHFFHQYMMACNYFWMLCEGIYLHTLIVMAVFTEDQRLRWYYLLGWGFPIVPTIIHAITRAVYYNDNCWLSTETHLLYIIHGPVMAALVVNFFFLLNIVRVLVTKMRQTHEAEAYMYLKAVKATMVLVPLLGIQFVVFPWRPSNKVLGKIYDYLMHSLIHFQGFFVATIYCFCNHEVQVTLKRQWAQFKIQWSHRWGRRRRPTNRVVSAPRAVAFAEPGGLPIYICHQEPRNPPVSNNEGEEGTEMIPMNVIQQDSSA
T1 sequence (Q9JJ73 23-147 partner): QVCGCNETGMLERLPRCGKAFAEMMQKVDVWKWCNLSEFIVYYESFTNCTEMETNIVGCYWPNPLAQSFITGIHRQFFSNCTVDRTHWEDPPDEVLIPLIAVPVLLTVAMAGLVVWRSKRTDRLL
Summary of the method: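 This assay measured binding to the rat amylin receptor. BHK tk′ts 13 cells were transiently transfected with the rat calcitonin receptor using FuGENE® 6 (Roche), following the manufacturer's recommendations. About 48 hours after transfection, the cells were harvested and membranes were prepared from them for the binding determination.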

rat calcitonin receptor = target: T2, rat calcitonin receptor (Rattus norvegicus, UniProt P32214); assay: ASSAY (VIII) binding to the rat calcitonin receptor; settings: Table 7, read-out: rCTR bind IC50
T2 construct: expressed in transfected cells; host or cells: BHK tk'ts 13 (transient, FuGENE 6), membranes
T2 sequence (P32214 25-479 isoform P32214-2 limits assumed): T1 sequence (P32214 25-479 isoform P32214-2 limits assumed)
Summary of the method: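 Membranes were prepared from BHK tk′ts 13 cells transiently transfected with rat calcitonin receptor. Cells were grown in DMEM with 10% FBS and harvested approximately 48 hours after transfection.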

[3] = target: T3, human calcitonin receptor (Homo sapiens, UniProt P30988); assay: ASSAY (VII) binding to the human calcitonin receptor (SPA, 125I-Calcitonin); settings: read-out: hCTR bind IC50;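 further: cell membranes (35 ng/µL) combined with SPA beads in 40 µL of pH 7.4 Hepes buffer, 384-well format, signal counted on a TopCounter instrument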
T3 construct: expressed in transfected cells
T3 sequence (P30988 25-474): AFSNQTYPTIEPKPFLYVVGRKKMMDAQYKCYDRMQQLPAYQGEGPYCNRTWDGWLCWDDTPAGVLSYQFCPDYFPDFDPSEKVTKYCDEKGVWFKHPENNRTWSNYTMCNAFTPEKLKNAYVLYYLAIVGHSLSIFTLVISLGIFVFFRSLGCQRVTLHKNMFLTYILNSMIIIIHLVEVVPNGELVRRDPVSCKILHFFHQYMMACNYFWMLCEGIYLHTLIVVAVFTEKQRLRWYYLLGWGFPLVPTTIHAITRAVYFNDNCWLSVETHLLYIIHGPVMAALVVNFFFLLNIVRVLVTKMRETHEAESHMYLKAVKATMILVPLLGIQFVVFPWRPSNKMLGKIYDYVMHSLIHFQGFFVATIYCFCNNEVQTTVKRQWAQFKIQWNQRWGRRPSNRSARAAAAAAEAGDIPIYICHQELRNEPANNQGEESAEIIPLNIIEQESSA

[4] = Table 7, rat binding selectivity, rCTR IC50 / rAmylin-R IC50
[5] = Table 7a (preferred compounds), rat binding selectivity, rCTR IC50 / rAmylin-R IC50
[6] = ratio of rCTR bind IC50 to rAmylin-R bind IC50

SMILES	ThT pH 4.0 lag time (h) [1]	IC50 ([2]; Table 7)	Ratio rCT/rAmylin binding [2, 4]	Ratio rCT/rAmylin binding [2, 5]	Ratio rCT/rAmylin binding [2, 6]	IC50 (rat calcitonin receptor)	IC50 [3]
CC[C@H](C)[C@H](NC(=O)[C@H](C)NC(=O)CNC(=O)[C@H](Cc1ccccc1)NC(=O)[C@H](CC(N)=O)NC(=O)[C@@H]1CCCN1C(=O)[C@H](CO)NC(=O)[C@H](CO)NC(=O)[C@H](Cc1c[nH]cn1)NC(=O)[C@H](CCCNC(=N)N)NC(=O)[C@H](CC(C)C)NC(=O)[C@H](Cc1ccccc1)NC(=O)[C@H](CC(N)=O)NC(=O)[C@H](C)NC(=O)[C@H](CC(C)C)NC(=O)[C@H](CCCNC(=N)N)NC(=O)[C@H](CCC(N)=O)NC(=O)[C@@H](NC(=O)[C@H](C)NC(=O)[C@@H]1CSSC[C@H](NC(=O)[C@@H](N)CCCCNC(=O)COCCOCCNC(=O)CC[C@H](NC(=O)CCCCCCCCCCCCCCCCCCC(=O)O)C(=O)O)C(=O)N[C@@H](CC(N)=O)C(=O)N[C@@H]([C@@H](C)O)C(=O)N[C@@H](C)C(=O)N[C@@H]([C@@H](C)O)C(=O)N1)[C@@H](C)O)C(=O)N1CCC[C@H]1C(=O)N[C@@H](CO)C(=O)N[C@@H](CO)C(=O)N[C@H](C(=O)N[C@@H](CC(N)=O)C(=O)N[C@H](C(=O)NCC(=O)N[C@@H](CO)C(=O)N[C@@H](CC(N)=O)C(=O)N[C@H](C(=O)N[C@@H](Cc1ccc(O)cc1)C(N)=O)[C@@H](C)O)C(C)C)[C@@H](C)O [Example 41]	7 h	1.37 nM	54.0	54.0	54.0	74.1 nM	21.3 nM
CC[C@H](C)[C@H](NC(=O)[C@H](C)NC(=O)CNC(=O)[C@H](Cc1ccccc1)NC(=O)[C@H](CC(N)=O)NC(=O)[C@@H]1CCCN1C(=O)[C@H](CO)NC(=O)[C@H](CO)NC(=O)[C@H](Cc1c[nH]cn1)NC(=O)[C@H](CCCNC(=N)N)NC(=O)[C@H](CC(C)C)NC(=O)[C@H](Cc1ccccc1)NC(=O)[C@H](CC(N)=O)NC(=O)[C@H](C)NC(=O)[C@H](CC(C)C)NC(=O)[C@H](CCCNC(=N)N)NC(=O)[C@H](CCC(N)=O)NC(=O)[C@@H](NC(=O)[C@H](C)NC(=O)[C@@H]1CSSC[C@H](NC(=O)[C@@H](N)CCCCNC(=O)COCCOCCNC(=O)CCCCCCCCCCCCCCCCCCC(=O)O)C(=O)N[C@@H](CC(N)=O)C(=O)N[C@@H]([C@@H](C)O)C(=O)N[C@@H](C)C(=O)N[C@@H]([C@@H](C)O)C(=O)N1)[C@@H](C)O)C(=O)N1CCC[C@H]1C(=O)N[C@@H](CO)C(=O)N[C@@H](CO)C(=O)N[C@H](C(=O)N[C@@H](CC(N)=O)C(=O)N[C@H](C(=O)NCC(=O)N[C@@H](CO)C(=O)N[C@@H](CC(N)=O)C(=O)N[C@H](C(=O)N[C@@H](Cc1ccc(O)cc1)C(N)=O)[C@@H](C)O)C(C)C)[C@@H](C)O [Example 43]	4 h	0.11 nM	69.1	69.1	69.1	7.6 nM	2.64 nM
CC[C@H](C)[C@H](NC(=O)[C@H](C)NC(=O)CNC(=O)[C@H](Cc1ccccc1)NC(=O)[C@H](CC(N)=O)NC(=O)[C@@H]1CCCN1C(=O)[C@H](CO)NC(=O)[C@H](CO)NC(=O)[C@H](Cc1c[nH]cn1)NC(=O)[C@H](CCCNC(=N)N)NC(=O)[C@H](CC(C)C)NC(=O)[C@H](Cc1ccccc1)NC(=O)[C@H](CC(N)=O)NC(=O)[C@H](C)NC(=O)[C@H](CC(C)C)NC(=O)[C@H](CCCNC(=N)N)NC(=O)[C@H](CCC(N)=O)NC(=O)[C@@H](NC(=O)[C@H](C)NC(=O)[C@@H]1CSSC[C@H](NC(=O)[C@@H](N)CCCCNC(=O)COCCOCCNC(=O)CC[C@H](NC(=O)CCCCCCCCCCCCCCCCCCC(=O)O)C(=O)O)C(=O)N[C@@H](CC(N)=O)C(=O)N[C@@H]([C@@H](C)O)C(=O)N[C@@H](C)C(=O)N[C@@H]([C@@H](C)O)C(=O)N1)[C@@H](C)O)C(=O)N1CCC[C@H]1C(=O)N[C@@H](CO)C(=O)N[C@@H](CO)C(=O)N[C@H](C(=O)N[C@@H](CC(N)=O)C(=O)N[C@H](C(=O)NCC(=O)N[C@@H](CCCNC(=N)N)C(=O)N[C@@H](CC(N)=O)C(=O)N[C@H](C(=O)N[C@@H](Cc1ccc(O)cc1)C(N)=O)[C@@H](C)O)C(C)C)[C@@H](C)O [Example 78] (H-K([AEEA-γGlu-C20 diacid])CNTATCATQRLANFLRHSSPNFGAIPSSTNVGRNTY-NH2; disulfide 2-7 (inferred))	13 h	1.3 nM	69.9	69.9	69.9	90.6 nM	36.6 nM
CC[C@H](C)[C@H](NC(=O)[C@H](C)NC(=O)CNC(=O)[C@H](Cc1ccccc1)NC(=O)[C@H](CC(N)=O)NC(=O)[C@@H]1CCCN1C(=O)[C@H](CO)NC(=O)[C@H](CO)NC(=O)[C@H](Cc1c[nH]cn1)NC(=O)[C@H](CCCNC(=N)N)NC(=O)[C@H](CC(C)C)NC(=O)[C@H](Cc1ccccc1)NC(=O)[C@H](Cc1c[nH]cn1)NC(=O)[C@H](C)NC(=O)[C@H](CC(C)C)NC(=O)[C@H](CCCNC(=N)N)NC(=O)[C@H](CCC(N)=O)NC(=O)[C@@H](NC(=O)[C@H](C)NC(=O)[C@@H]1CSSC[C@H](NC(=O)[C@@H](N)CCCCNC(=O)CC[C@H](NC(=O)CCCCCCCCCCCCCCCCCCC(=O)O)C(=O)O)C(=O)N[C@@H](CC(N)=O)C(=O)N[C@@H]([C@@H](C)O)C(=O)N[C@@H](C)C(=O)N[C@@H]([C@@H](C)O)C(=O)N1)[C@@H](C)O)C(=O)N1CCC[C@H]1C(=O)N[C@@H](CO)C(=O)N[C@@H](CO)C(=O)N[C@H](C(=O)N[C@@H](CC(N)=O)C(=O)N[C@H](C(=O)NCC(=O)N[C@@H](CO)C(=O)N[C@@H](Cc1c[nH]cn1)C(=O)N[C@H](C(=O)N[C@@H](Cc1ccc(O)cc1)C(N)=O)[C@@H](C)O)C(C)C)[C@@H](C)O [Example 66] (H-K([γGlu-C20 diacid])CNTATCATQRLAHFLRHSSPNFGAIPSSTNVGSHTY-NH2; disulfide 2-7; N-terminus assumed)	45 h	0.581 nM	35.8	35.8	35.8	20.8 nM	18 nM
